# Reference: ChEMBL document CHEMBL2321869, “Ion channels as therapeutic targets: a drug discovery perspective” (J Med Chem, 2013)
# Tests used:
# [1] = biological target: P2X2/P2X3 heterotrimeric receptor (Homo sapiens, UniProt P56373+Q9UBL9); experiment: Antagonist activity at human P2X2/3 receptor; assay type: protein-complex assay
# [2] = biological target: Potassium channel subfamily K member 2 (Homo sapiens, UniProt O95069); experiment: Inhibition of human TREK-1 expressed in HEK293 cells by patch-clamp technique; assay type: cell-based
# [3] = Blockade of ASIC (unknown origin); design: species or system Homo sapiens
# [4] = biological target: Gamma-aminobutyric acid receptor subunit alpha-1 (Homo sapiens) (UniProt P14867); experiment: Positive allosteric modulation of GABAA alpha1 (unknown origin) relative to control
# [5] = biological target: Gamma-aminobutyric acid receptor subunit alpha-3 (Homo sapiens) (UniProt P34903); experiment: Positive allosteric modulation of GABAA alpha3 (unknown origin) relative to control
# [6] = biological target: T1, Gamma-aminobutyric acid receptor subunit alpha-2 (Homo sapiens) (UniProt P47869); experiment: Positive allosteric modulation of GABAA alpha2 (unknown origin) relative to control
# T1 sequence (whole entry): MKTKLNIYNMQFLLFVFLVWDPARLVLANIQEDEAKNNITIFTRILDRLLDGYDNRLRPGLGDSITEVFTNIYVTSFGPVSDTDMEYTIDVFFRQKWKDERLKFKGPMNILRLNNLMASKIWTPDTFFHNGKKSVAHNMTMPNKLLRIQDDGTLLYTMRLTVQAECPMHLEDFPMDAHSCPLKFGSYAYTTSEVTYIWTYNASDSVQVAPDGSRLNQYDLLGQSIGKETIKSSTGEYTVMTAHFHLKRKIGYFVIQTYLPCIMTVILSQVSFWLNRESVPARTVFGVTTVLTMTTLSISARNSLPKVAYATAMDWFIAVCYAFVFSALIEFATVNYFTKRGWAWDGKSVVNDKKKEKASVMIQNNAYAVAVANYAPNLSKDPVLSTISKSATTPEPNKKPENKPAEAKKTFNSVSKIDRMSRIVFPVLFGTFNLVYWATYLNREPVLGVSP
# [7] = biological target: T2, Gamma-aminobutyric acid receptor subunit alpha-1 (Homo sapiens, UniProt P14867); experiment: Positive allosteric modulation of GABAA alpha1 (unknown origin)
# T2 sequence (P14867 whole entry): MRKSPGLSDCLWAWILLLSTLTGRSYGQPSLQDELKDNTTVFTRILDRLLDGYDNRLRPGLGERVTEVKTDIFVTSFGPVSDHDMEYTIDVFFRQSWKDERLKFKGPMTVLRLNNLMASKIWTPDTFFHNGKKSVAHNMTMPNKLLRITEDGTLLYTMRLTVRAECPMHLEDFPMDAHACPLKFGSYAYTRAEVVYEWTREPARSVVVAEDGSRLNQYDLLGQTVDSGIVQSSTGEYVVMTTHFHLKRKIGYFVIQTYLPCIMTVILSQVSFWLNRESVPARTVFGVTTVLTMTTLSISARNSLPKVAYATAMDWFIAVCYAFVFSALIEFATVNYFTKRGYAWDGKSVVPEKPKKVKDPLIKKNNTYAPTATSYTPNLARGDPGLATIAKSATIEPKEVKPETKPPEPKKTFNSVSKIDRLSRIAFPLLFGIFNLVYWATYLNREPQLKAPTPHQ
# [8] = biological target: T3, Gamma-aminobutyric acid receptor subunit alpha-5 (Homo sapiens, UniProt P31644); experiment: Positive allosteric modulation of GABAA alpha5 (unknown origin)
# T3 sequence (P31644 whole entry): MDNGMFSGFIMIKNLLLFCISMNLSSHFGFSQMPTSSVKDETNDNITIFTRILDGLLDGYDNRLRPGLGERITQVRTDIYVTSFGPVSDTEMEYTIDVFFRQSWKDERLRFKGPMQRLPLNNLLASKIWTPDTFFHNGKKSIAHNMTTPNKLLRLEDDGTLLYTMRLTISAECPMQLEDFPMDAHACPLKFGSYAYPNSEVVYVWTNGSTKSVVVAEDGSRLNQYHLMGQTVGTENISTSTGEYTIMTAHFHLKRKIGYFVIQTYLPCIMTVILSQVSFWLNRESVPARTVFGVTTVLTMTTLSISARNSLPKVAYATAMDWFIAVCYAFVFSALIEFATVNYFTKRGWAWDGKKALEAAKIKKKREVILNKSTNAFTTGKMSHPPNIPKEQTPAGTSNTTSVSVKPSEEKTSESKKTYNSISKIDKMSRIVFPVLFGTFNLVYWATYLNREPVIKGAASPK
# [9] = biological target: T4, Gamma-aminobutyric acid receptor subunit alpha-2 (Homo sapiens, UniProt P47869); experiment: Positive allosteric modulation of GABAA alpha2 (unknown origin)
# T4 sequence (P47869 whole entry): T1 sequence (whole entry)
# [10] = biological target: T5, Gamma-aminobutyric acid receptor subunit alpha-3 (Homo sapiens, UniProt P34903); experiment: Positive allosteric modulation of GABAA alpha3 (unknown origin)
# T5 sequence (P34903 whole entry): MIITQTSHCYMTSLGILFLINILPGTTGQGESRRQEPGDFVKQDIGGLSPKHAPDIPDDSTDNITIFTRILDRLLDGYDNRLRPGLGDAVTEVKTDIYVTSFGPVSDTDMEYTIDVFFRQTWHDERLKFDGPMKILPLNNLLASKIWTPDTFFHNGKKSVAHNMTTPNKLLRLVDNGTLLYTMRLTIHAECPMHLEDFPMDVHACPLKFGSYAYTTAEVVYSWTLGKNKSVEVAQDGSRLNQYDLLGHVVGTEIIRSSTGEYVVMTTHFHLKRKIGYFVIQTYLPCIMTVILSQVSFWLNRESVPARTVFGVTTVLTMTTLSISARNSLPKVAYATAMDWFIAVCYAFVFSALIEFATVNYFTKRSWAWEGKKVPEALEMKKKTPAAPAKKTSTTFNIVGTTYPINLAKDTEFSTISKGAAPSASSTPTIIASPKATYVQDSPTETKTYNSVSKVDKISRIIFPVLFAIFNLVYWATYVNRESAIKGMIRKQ
# Rattus norvegicus = organism: Rattus norvegicus; experiment: Selectivity ratio of EC50 for AMPA receptor in rat hippocampal neurons to EC50 for AMPA receptor in rat DRG neurons; assay type: tissue-based; settings: Hippocampus
# [11] = Agonist activity at AMPA receptor in rat DRG neurons by patch clamp technique; settings: DRG neuron
# [12] = biological target: Small conductance calcium-activated potassium channel protein 3 (Homo sapiens, UniProt Q9UGI6); experiment: Inhibition of human Kca 2.3 expressed in HEK293 cells by patch clamp technique; assay type: cell-based
# Small conductance calcium-activated potassium channel protein 3, sequence (Q9UGI6 whole entry): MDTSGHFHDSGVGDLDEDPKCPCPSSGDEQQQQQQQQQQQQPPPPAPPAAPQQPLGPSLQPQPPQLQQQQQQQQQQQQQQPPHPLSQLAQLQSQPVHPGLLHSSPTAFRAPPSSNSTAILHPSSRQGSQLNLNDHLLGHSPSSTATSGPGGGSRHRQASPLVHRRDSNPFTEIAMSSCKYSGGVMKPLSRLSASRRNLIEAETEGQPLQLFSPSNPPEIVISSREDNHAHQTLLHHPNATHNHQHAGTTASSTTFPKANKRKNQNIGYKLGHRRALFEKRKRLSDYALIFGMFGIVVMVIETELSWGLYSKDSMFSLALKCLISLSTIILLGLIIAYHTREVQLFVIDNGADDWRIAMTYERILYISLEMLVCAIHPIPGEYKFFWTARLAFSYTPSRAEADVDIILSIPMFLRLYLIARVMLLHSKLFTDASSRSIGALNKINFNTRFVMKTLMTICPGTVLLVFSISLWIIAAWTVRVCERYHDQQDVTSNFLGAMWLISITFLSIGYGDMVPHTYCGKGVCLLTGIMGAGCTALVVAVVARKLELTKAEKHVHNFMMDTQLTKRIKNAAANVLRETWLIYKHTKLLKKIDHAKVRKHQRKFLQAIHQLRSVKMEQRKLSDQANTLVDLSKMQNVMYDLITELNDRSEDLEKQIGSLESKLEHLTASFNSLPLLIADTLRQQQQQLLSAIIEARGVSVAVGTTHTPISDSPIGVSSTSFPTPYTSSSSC
# [13] = biological target: Gamma-aminobutyric acid receptor subunit alpha-5 (Homo sapiens) (UniProt P31644); experiment: Positive allosteric modulation of GABAA alpha5 (unknown origin) relative to control
# [14] = biological target: Potassium voltage-gated channel subfamily KQT member 5 (Homo sapiens, UniProt Q9NR82); experiment: Positive modulatory activity at voltage-gated K channel 7.5 (unknown origin)
# [15] = biological target: Potassium voltage-gated channel subfamily KQT member 3 (Homo sapiens, UniProt O43525); experiment: Positive modulatory activity at voltage-gated K channel 7.3 (unknown origin)
# Potassium voltage-gated channel subfamily KQT member 3, sequence (O43525 whole entry): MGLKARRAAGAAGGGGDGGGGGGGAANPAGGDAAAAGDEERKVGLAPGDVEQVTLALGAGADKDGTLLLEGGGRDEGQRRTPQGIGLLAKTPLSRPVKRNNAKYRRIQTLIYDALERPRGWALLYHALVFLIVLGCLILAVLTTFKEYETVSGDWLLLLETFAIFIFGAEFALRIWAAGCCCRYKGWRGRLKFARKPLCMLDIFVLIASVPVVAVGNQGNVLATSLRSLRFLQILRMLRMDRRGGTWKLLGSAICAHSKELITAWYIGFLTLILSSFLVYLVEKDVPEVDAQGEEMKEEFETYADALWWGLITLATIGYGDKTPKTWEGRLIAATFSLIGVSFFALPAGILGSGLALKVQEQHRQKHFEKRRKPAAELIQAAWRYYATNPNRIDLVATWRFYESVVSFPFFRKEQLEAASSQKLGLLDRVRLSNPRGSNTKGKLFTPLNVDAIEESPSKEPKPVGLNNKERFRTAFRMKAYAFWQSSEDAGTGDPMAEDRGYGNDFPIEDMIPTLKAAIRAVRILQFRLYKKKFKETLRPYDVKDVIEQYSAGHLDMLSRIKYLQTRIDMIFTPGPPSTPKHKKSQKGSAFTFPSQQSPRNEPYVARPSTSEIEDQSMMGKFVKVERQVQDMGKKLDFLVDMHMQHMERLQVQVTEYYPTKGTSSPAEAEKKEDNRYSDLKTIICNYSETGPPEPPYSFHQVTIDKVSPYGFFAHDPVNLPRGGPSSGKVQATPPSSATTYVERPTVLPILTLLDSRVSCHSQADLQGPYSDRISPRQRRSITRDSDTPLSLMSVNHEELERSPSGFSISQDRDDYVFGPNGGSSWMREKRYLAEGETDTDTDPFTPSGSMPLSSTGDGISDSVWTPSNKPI
# [16] = biological target: Potassium voltage-gated channel subfamily KQT member 2 (Homo sapiens, UniProt O43526); experiment: Positive modulatory activity at voltage-gated K channel 7.2 (unknown origin)
# [17] = biological target: Potassium voltage-gated channel subfamily KQT member 4 (Homo sapiens, UniProt P56696); experiment: Positive modulatory activity at voltage-gated K channel 7.4 (unknown origin)
# [18] = biological target: Calcium-activated potassium channel subunit alpha-1 (Homo sapiens, UniProt Q12791); experiment: Positive modulation of Kca 1.1 (unknown origin)
# Calcium-activated potassium channel subunit alpha-1, sequence (Q12791 whole entry): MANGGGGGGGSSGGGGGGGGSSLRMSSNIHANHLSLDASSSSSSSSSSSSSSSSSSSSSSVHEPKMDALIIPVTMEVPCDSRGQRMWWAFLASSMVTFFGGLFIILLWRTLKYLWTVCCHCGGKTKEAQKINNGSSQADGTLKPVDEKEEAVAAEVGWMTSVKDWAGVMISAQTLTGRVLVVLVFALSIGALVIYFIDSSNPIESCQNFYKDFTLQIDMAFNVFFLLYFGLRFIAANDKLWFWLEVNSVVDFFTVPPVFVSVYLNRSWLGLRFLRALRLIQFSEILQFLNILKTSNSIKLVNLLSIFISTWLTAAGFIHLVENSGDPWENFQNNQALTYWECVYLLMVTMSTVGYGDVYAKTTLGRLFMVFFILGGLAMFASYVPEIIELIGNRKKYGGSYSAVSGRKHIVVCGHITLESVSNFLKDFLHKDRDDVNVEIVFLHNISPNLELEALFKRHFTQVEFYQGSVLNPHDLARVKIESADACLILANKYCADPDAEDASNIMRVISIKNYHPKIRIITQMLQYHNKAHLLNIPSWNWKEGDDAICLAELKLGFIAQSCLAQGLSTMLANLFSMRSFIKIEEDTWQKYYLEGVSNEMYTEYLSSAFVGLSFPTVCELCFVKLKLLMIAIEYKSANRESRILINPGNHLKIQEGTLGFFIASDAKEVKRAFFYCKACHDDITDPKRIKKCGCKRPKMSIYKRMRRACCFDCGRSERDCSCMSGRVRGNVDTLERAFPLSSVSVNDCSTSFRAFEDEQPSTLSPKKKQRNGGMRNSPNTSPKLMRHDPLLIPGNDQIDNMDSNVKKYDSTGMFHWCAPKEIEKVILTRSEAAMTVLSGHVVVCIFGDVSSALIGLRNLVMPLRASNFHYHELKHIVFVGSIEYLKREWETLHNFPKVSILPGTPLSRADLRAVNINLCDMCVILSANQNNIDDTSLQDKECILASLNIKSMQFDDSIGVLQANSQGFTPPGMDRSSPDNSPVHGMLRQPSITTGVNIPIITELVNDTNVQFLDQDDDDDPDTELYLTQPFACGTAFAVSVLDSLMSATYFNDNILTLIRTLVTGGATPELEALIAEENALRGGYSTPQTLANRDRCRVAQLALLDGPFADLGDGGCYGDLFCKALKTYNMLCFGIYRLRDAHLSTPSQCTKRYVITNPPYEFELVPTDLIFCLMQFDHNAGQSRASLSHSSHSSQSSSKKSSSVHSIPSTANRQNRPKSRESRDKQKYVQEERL
# [19] = biological target: Potassium channel subfamily K member 3 (Homo sapiens, UniProt O14649); experiment: Inhibition of TASK-1 (unknown origin)
# Potassium channel subfamily K member 3, sequence (O14649 whole entry): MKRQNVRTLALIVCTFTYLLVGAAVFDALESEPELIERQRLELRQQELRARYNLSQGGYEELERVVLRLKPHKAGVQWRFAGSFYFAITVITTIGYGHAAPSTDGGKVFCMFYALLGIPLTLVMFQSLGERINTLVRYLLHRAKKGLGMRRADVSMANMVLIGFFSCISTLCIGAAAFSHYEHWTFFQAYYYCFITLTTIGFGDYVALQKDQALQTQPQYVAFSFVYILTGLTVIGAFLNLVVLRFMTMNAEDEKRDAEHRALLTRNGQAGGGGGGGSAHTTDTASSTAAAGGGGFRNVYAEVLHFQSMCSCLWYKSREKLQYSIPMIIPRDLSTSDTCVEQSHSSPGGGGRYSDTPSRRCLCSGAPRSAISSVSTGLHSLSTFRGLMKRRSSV
# [20] = biological target: Transient receptor potential cation channel subfamily V member 4 (Homo sapiens, UniProt Q9HBA0); experiment: Inhibition of TRPV4 (unknown origin)
# Transient receptor potential cation channel subfamily V member 4, sequence (Q9HBA0 whole entry): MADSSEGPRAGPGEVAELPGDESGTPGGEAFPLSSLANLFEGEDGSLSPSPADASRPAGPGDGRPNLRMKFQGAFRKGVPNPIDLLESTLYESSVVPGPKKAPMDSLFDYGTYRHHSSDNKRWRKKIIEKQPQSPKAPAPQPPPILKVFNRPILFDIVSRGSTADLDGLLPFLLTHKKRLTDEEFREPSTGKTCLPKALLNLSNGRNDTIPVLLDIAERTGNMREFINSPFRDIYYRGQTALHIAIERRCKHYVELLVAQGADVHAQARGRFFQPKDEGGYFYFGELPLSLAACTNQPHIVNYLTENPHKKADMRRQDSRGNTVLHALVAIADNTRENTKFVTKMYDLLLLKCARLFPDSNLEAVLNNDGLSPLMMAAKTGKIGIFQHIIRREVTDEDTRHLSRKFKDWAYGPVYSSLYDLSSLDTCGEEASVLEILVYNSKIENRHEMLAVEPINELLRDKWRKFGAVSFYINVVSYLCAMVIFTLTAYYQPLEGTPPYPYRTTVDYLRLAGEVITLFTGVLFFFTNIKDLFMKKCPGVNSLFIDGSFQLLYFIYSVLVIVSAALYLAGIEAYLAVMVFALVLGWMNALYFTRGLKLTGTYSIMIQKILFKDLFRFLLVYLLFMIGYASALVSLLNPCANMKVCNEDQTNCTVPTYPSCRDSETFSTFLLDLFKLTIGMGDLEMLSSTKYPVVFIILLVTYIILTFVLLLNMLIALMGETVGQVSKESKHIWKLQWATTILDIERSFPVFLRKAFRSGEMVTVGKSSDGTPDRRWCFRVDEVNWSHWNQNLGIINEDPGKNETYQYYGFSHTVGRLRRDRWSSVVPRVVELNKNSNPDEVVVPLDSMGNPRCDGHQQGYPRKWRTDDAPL
# Homo sapiens [21] = organism: Homo sapiens; experiment: Selectivity ratio of IC50 for voltage-gated K channel (unknown origin) to human voltage-gated K channel 2.1
# Homo sapiens [22] = organism: Homo sapiens; experiment: Selectivity ratio of IC50 for voltage-gated Na channel (unknown origin) to IC50 for human voltage-gated K channel 2.1
# Homo sapiens [23] = organism: Homo sapiens; experiment: Selectivity ratio of IC50 for voltage-gated K channel (unknown origin) to voltage-gated K channel 2.2 (unknown origin)
# Homo sapiens [24] = organism: Homo sapiens; experiment: Selectivity ratio of IC50 for voltage-gated Na channel (unknown origin) to IC50 for voltage-gated K channel 2.2 (unknown origin)
# [25] = biological target: Potassium voltage-gated channel subfamily B member 2 (Homo sapiens, UniProt Q92953); experiment: Inhibition of voltage-gated K channel 2.2 (unknown origin) by automated patch clamp assay
# Potassium voltage-gated channel subfamily B member 2, sequence (Q92953 whole entry): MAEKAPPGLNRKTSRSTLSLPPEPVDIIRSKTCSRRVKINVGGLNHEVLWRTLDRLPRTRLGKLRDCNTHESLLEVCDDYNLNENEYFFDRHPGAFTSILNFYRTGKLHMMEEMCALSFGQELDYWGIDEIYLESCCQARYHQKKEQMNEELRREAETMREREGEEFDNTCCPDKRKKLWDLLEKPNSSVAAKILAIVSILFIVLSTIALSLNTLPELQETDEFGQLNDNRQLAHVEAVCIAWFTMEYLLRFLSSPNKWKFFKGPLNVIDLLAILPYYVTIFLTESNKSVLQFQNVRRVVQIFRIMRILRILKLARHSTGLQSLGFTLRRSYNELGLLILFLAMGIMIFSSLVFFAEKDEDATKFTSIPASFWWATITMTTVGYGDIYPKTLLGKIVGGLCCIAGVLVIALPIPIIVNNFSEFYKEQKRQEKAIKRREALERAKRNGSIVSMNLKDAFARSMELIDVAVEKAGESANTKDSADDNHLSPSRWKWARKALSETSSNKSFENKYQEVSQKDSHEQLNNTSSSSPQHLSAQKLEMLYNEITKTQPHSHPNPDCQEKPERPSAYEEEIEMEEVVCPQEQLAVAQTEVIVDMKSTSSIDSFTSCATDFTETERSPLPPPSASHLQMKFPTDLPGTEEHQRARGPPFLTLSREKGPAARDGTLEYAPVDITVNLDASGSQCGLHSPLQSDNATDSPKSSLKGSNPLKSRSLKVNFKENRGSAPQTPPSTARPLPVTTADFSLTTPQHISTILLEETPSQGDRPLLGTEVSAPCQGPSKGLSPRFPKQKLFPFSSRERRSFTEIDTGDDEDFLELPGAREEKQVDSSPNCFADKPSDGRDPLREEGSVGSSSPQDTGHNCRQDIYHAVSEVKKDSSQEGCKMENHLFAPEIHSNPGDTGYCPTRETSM
# Mus musculus [26] = organism: Mus musculus; experiment: Selectivity ratio of EC50 for mouse voltage-gated K channel 1.3 to EC50 for mouse voltage-gated K channel 1.7
# [27] = Selectivity ratio of EC50 for mouse voltage-gated K channel 1.3 to EC50 for rat voltage-gated K channel 1.2
# [28] = Selectivity ratio of EC50 for mouse voltage-gated K channel 1.3 to EC50 for human voltage-gated K channel 1.4
# Mus musculus [29] = organism: Mus musculus; experiment: Selectivity ratio of EC50 for mouse voltage-gated K channel 1.3 to EC50 for mouse voltage-gated K channel 1.1
# [30] = biological target: Inward rectifier potassium channel 2 (Mus musculus, UniProt P35561); experiment: Inhibition of mouse Kir2.1 expressed in HEK293 cells by patch clamp technique; assay type: cell-based
# Homo sapiens [31] = organism: Homo sapiens; experiment: Selectivity ratio of IC50 for human voltage-gated Na channel 1.7 to IC50 for human voltage-gated Na channel 1.8
# Homo sapiens [32] = organism: Homo sapiens; experiment: Selectivity ratio of IC50 for human voltage-gated Na channel 1.1 to IC50 for human voltage-gated Na channel 1.8
# Homo sapiens [33] = organism: Homo sapiens; experiment: Selectivity ratio of IC50 for human voltage-gated Na channel 1.5 to IC50 for human voltage-gated Na channel 1.8
smiles,measurement,setting,value
Cc1ccc(-c2cc(C(=O)N[C@H](C)c3ccc(F)cn3)cc(-c3ncccc3F)c2)nc1,IC50,[1],8000 nM
CCN(CC)CC(=O)Nc1c(C)cccc1C [LIDOCAINE],IC50,[2],180000 nM
N=C(N)NC(=O)c1nc(Cl)c(N)nc1N [AMILORIDE],IC50,[3],10000 nM
Cc1cc(-c2nncc3c(C(C)(C)C)c(OCc4ncnn4C)nn23)no1,Activity,[4],23%
same,Activity,[5],-15%
same,Activity,[6],4%
same,Ki,[7],0.8 nM
same,Ki,[8],1.4 nM
same,Ki,[9],0.8 nM
same,Ki,[10],0.8 nM
N[C@@H](Cn1cc(I)c(=O)[nH]c1=O)C(=O)O,Ratio EC50,Rattus norvegicus,137
same,EC50,[11],140 nM
Cc1ccn(-c2nc(Nc3ccc(F)cc3)c3ncn(C)c3n2)n1,EC50,[12],20 nM
Cn1ncnc1COc1nn2c(-c3cc(F)ccc3F)nnc2cc1C(C)(C)C,Activity,[13],36%
same,Activity,[5],39%
same,Activity,[6],34%
same,Ki,[8],2.3 nM
same,Ki,[9],0.7 nM
same,Ki,[10],0.7 nM
Cc1csc(-c2cc(-c3ccncc3)c3n(c2=O)CCCc2ccncc2-3)n1,Activity,[6],37%
same,Ki,[7],1.3 nM
same,Ki,[9],0.6 nM
same,Ki,[10],0.5 nM
COc1ccc(Cl)cc1[C@]1(F)C(=O)Nc2cc(C(F)(F)F)ccc21 [FLINDOKALNER],EC50,[14],2400 nM
same,EC50,[15],2400 nM
same,EC50,[16],2400 nM
same,EC50,[17],2400 nM
same,EC50,[18],352 nM
CCCC(=O)C1CCN(c2ncnc3c2CN(C(=O)c2ccc(-c4ccccc4)cc2)CC3)CC1,IC50,[19],300 nM
CC(C)NCCN(C(C)C)S(=O)(=O)c1ccc(Cl)cc1Cl,IC50,[20],2300 nM
CC(C)C(=O)Nc1ccc(N(C)C)c(C(=O)N[C@@H](C)c2ccccc2)c1,Ratio IC50,Homo sapiens [21],> 10
same,Ratio IC50,Homo sapiens [22],> 10
same,Ratio IC50,Homo sapiens [23],> 10
same,Ratio IC50,Homo sapiens [24],> 10
same,IC50,[25],100 nM
O=c1ccc2c(OCCCCc3ccccc3)c3ccoc3cc2o1,Ratio EC50,Mus musculus [26],17
same,Ratio EC50,[27],17
same,Ratio EC50,[28],17
same,Ratio EC50,Mus musculus [29],17
COc1ccc(CNCc2cccc3ccccc23)cc1,IC50,[30],1800 nM
Cc1nocc1C(=O)Nc1ccc(-c2ccccc2OC(F)(F)F)c(N)n1,Ratio IC50,Homo sapiens [31],> 20
same,Ratio IC50,Homo sapiens [32],> 20
same,Ratio IC50,Homo sapiens [33],> 20
